Test results as given in patent US11453632B2, “1-phenyl-2-phenylethane derivative” (KAO CORPORATION, priority 2018, dated 2022).

Tests used:
[1] = target: T1, ERβ (Homo sapiens, UniProt Q92731); experiment: Ability to activate transcription mediated by ERβ (pcDNA3-ERβ, pERE luciferase, HEK293 cells); format: cell-based; conditions: negative control 0.001475
T1 construct: host or cells: HEK293
Description: (§1) 1) Experimental Method (Measurement of Transcriptional Activity Mediated by ERs)
(§2) HEK293 cells were inoculated at a cell density of 4.0×10^4 cells/well to a 96-well plate. After 12 hours therefrom, the medium was replaced with a culture solution (DMEM containing 5% (v/v) charcoal-treated serum). The cells were cotransfected with pcDNA3-ERα or pcDNA3-ERβ (Promega Corp.) and pERE and pRL-CMV (Promega Corp.) using Lipofectamine 2000 (Invitrogen Corp.) according to the protocol attached to the product. 24 hours after transfection, the medium was replaced with a culture medium containing a test sample, followed by culture for another 24 hours. Then, luciferase activity was measured using Dual-Glo™ Luciferase Assay System (Promega Corp.) according to the attached protocol. The luminescence intensity of firefly luciferase (index for the ability to activate transcription mediated by ERE) was divided by the luminescence intensity of Renilla reniformis luciferase (index for the transfection efficiency of the plasmids) to calculate a relative light unit (RLU).

[2] = target: T2, ERβ LBD (Homo sapiens, UniProt Q92731); experiment: Ability to bind to ERβ: pBIND-ERβ LBD / GAL4 luciferase reporter in HEK293 cells; format: cell-based; parameters: key: RLU = firefly luminescence / Renilla luminescence; conditions: negative control 0.0118997
T2 construct: host or cells: HEK293
Description: This evaluation system is a system exploiting difference in the sequence of the ligand binding domain (LBD) between ERα and ERβ (J Endocrinol 163: 379-383 (1999)), and enables selective activation of ERβ to be evaluated by determining the binding of a ligand to LBD and the activation of ER.
(§3) A human kidney-derived cell line HEK293 was cultured (37° C., 5% CO2) in Dulbecco's modified Eagle medium (hereinafter, abbreviated to DMEM) containing 10% (v/v) fetal bovine serum (FBS) and penicillin/streptomycin.
(§4) 2) Measurement of Binding Activity Against ERs
(§5) This measurement was carried out according to the method described in JP-B-5990058. Specifically, HEK293 cells were inoculated at a cell density of 4.0×10^4 cells/well to a 96-well plate. After 12 hours therefrom, the medium was replaced with a culture solution (DMEM containing 5% (v/v) charcoal-treated serum). The cells were cotransfected with pBIND-ERα for the expression of ERα LBD or pBIND-ERβ for the expression of ERβ LBD (Promega Corp.) and pGL4.35[luc2P/9XGAL4UAS/Hygro](Promega Corp.) using Lipofectamine 2000 (Invitrogen Corp.) according to the protocol attached to the product. 24 hours after transfection, the medium was replaced with a culture solution containing a test sample, followed by culture for another 24 hours. The activity measurement of firefly luciferase (index for the ligand binding activity of ER) and Renilla reniformis luciferase (index for the transfection efficiency of the plasmids) was carried out using Dual-Glo™ Luciferase Assay System (Promega Corp.) according to the attached protocol. The luminescence intensity of the firefly luciferase was divided by the luminescence intensity of the Renilla reniformis luciferase to calculate a relative light unit (RLU).

[3] = target: T3, ERα (Homo sapiens, UniProt P03372); experiment: Ability to activate transcription mediated by ERα (pcDNA3-ERα, pERE luciferase, HEK293 cells); format: cell-based; conditions: negative control 0.004573
T3 construct: host or cells: HEK293
T3 sequence (P03372 1-595): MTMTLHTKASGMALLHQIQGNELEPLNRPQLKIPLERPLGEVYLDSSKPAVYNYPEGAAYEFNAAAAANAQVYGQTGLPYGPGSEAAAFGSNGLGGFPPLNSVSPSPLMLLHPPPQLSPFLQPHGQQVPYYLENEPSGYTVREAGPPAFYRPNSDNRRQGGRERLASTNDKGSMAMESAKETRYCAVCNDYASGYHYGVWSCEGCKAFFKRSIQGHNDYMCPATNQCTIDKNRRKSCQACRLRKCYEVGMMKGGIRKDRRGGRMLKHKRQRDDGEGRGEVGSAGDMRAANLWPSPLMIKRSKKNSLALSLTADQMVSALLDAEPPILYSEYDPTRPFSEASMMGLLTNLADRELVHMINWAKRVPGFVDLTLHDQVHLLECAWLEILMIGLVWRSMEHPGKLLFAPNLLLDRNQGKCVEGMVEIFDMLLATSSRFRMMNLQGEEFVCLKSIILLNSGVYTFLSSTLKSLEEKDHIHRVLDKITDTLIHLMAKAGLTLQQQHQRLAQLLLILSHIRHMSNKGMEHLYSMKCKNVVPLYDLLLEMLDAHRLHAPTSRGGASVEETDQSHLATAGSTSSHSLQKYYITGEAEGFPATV
Description: as §1, §2

[4] = target: T4, ERα LBD (Homo sapiens, UniProt P03372); experiment: Ability to bind to ERα: pBIND-ERα LBD / GAL4 luciferase reporter in HEK293 cells; format: cell-based; parameters: key: firefly luciferase / Renilla luciferase luminescence ratio; conditions: negative control 0.00847035
T4 construct: host or cells: HEK293
T4 sequence (P03372 311-547 limits assumed): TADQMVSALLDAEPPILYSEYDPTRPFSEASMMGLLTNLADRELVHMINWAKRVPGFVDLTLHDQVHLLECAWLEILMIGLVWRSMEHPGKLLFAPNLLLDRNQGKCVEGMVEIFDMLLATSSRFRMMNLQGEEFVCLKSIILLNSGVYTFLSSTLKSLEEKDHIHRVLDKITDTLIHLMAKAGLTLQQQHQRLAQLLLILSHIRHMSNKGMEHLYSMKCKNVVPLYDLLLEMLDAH
Description: as §3, §4
as §5, with “Specifically,” for “This measurement was carried out according to the method described in JP-B-5990058. Specifically,”

[5] = tested on: uterus of ovariectomized rat; experiment: Uterus weight in ovariectomized (OVX) rat; format: in vivo; conditions: 4 μg/kg/day subcutaneous, vs negative solvent group
Description: 8-week-old female Crl:CD (SD) rats were obtained from Charles River Laboratories Japan, Inc. and individually identified by the ear punching method on the receipt date. Then, an acclimatization period was established for 1 week. The animals were raised in a rearing room under a set environment involving a temperature of 22±3° C., a humidity of 50±20%, air ventilation from 13 to 17 times/hour, and a lighting time from 8:00 to 20:00. During the acclimatization period, the rats were allowed to freely ingest solid feed CRF-1 (Oriental Yeast Co., Ltd.). Since the feeding with CRF-1, the rats were allowed to freely ingest customized feed AIN-93G (Oriental Yeast Co., Ltd.) free from components derived from soybeans.
On the end date of acclimatization and the following day, the flank cavity was opened under isoflurane anesthesia to harvest the right and left ovaries including fallopian tubes. Other non-OVX rats were subjected to only opening and suture (sham surgery). Immediately thereafter, an antibiotic was subcutaneously administered at a dose of 100 μl/animal. After the surgery, the sham surgery or OVX animals were given customized feed and raised for approximately 1 week.
From 1.5 hours before a shift from the light phase to the dark phase (18:30), a negative solvent (DMSO) or a test substance was subcutaneously administered at a dose of 0.5 ml/kg to the back of the neck according to Table 3 described below using a syringe and an injection needle.
After the completion of all procedures of measurement and analysis, the rats were euthanized by blood letting under isoflurane anesthesia, and the uterus was harvested. Wet weights were measured.
Skin temperatures differed largely among individuals, and the Smirnov-Grubbs test was conducted in order to exclude outliers beforehand. Results of measuring tail skin temperatures and results of measuring uterus weights were statistically analyzed by testing using the Dunnett's test.

T2 sequence (Q92731 264-498 limits assumed): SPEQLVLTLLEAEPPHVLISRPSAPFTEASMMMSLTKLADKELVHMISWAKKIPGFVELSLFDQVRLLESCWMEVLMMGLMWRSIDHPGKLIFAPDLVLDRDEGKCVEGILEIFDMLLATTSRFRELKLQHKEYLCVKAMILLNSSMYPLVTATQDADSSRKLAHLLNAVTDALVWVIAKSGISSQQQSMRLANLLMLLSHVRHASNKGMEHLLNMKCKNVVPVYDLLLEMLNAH
T1 sequence (Q92731 whole entry): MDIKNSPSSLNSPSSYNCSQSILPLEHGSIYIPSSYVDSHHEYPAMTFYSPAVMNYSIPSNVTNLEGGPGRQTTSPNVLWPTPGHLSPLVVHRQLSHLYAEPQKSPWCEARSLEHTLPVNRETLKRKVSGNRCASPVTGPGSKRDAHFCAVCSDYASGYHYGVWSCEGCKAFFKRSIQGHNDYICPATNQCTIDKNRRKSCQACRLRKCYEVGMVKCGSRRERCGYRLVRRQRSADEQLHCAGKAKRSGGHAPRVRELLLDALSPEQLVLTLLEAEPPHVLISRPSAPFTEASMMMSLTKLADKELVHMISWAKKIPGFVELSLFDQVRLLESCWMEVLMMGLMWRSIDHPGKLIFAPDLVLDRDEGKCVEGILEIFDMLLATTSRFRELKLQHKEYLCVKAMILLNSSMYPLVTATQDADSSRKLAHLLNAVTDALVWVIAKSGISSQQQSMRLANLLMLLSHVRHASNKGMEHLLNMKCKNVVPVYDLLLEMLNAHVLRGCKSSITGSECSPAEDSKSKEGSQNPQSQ

relative light unit (RLU), transcription activation ERβ ([1]; 0.01 pM)	relative light unit (RLU), transcription activation ERβ ([1]; 0.1 pM)	relative light unit (RLU), transcription activation ERβ ([1]; 1 pM)	relative light unit (RLU), transcription activation ERβ ([1]; 10 pM)	relative light unit (RLU), transcription activation ERβ ([1]; 100 pM)	relative light unit (RLU), transcription activation ERβ ([1]; 1000 pM)	relative light unit (RLU), transcription activation ERβ ([1]; 10000 pM)	relative light unit (RLU), ligand binding activity ERβ ([2]; 0.01 nM)	relative light unit (RLU), ligand binding activity ERβ ([2]; 0.1 nM)	relative light unit (RLU), ligand binding activity ERβ ([2]; 1 nM)	relative light unit (RLU), ligand binding activity ERβ ([2]; 10 nM)	relative light unit (RLU), ligand binding activity ERβ ([2]; 100 nM)	relative light unit (RLU), transcription activation ERα ([3]; 0.1 pM)	relative light unit (RLU), transcription activation ERα ([3]; 1 pM)	relative light unit (RLU), transcription activation ERα ([3]; 10 pM)	relative light unit (RLU), transcription activation ERα ([3]; 100 pM)	relative light unit (RLU), transcription activation ERα ([3]; 1000 pM)	relative light unit (RLU), transcription activation ERα ([3]; 10000 pM)	relative light unit (RLU), ligand binding activity ERα ([4]; 0.01 nM)	relative light unit (RLU), ligand binding activity ERα ([4]; 0.1 nM)	Compound	further results
0.003231	0.00681	0.01281	0.03479	0.03642	0.03659	0.03706	0.6452	2.101	2.317	2.025	2.304	0.01194	0.01337	0.01971	0.04067	0.06395	0.06152	0.03608	0.1312	4-(4,4-difluoro-2-(4-hydroxyphenyl)but-3-en-1-yl)-3,5 [Compound 18-F]	relative light unit (RLU), ligand binding activity ERα ([4]; 1 nM): 1.177; relative light unit (RLU), ligand binding activity ERα ([4]; 10 nM): 2.968; relative light unit (RLU), ligand binding activity ERα ([4]; 100 nM): 3.391
																				Oc1ccc(CC(c2ccc(O)cc2)C2CCCCC2)cc1 (stereo not drawn) [Compound 4, 4,4′-(1-cyclohexylethane-1,2-diyl)diphenol]	melting point: 74 to 76 °C
0.002068	0.002153	0.00383	0.01191	0.02336	0.03253	0.03471	0.06046	0.9104	1.877	2.074	2.408	0.006825	0.008059	0.008285	0.01621	0.04026	0.04776	0.02799	0.0373	Oc1ccc(CC(C=C(F)F)c2ccc(O)cc2)cc1 (stereo not drawn) [Compound 7, 4,4′-(4,4-difluorobut-3-ene-1,2-diyl)diphenol]	relative light unit (RLU), ligand binding activity ERα ([4]; 1 nM): 0.02919; relative light unit (RLU), ligand binding activity ERα ([4]; 10 nM): 0.06191; relative light unit (RLU), ligand binding activity ERα ([4]; 100 nM): 1.588
																				C[C@]12CC[C@@H]3c4ccc(O)cc4CC[C@H]3[C@@H]1CC[C@@H]2O [E2, estradiol, reference compound]	uterus wet weight (FIG. 6) [5]: significantly increased
